One experiment relates to MIA PaCa-2 cells. In words: Proliferation inhibition on MIA PaCa-2 cell line by CTG method. Format: cell-based, human. The following applies: for IC50: Homo sapiens, MIA PaCa-2, Table 2, CellTiter Glo, 120 hours. As for the experimental part: Experiments for Testing Proliferation Inhibition of Compounds on MIA PaCa-2 Cell Lines by CTG Method
40 μL of MIA PaCa-2 cell suspension was added to each well (except for peripheral wells) of 384-well plates. The plates were placed in a carbon dioxide incubator overnight. […] The plates were incubated in a carbon dioxide incubator for 120 hours. To the 384-well plates were added 25 μL of CellTiter Glo reagents, and the mixture was shaken in the dark for 10 minutes and incubated for 10 minutes. The plates were read on the EnVision plate reader. XLFit was used to draw inhibition rate curves of efficacy and IC50 values were calculated. […] “---” represents not determined.
MIA PaCa-2 was a human pancreatic cancer cell with KRAS G12C mutation. The activity of compounds can be evaluated by detecting the proliferation inhibitory activity of these compounds on such cell line.

A further experiment concerns NCI-H358 cells. In words: Proliferation inhibition on NCI-H358 cell line by CTG method. The following applies: for IC50: Homo sapiens, NCI-H358, 120 h, CellTiter Glo, 120 hours. The experiment is classed as cell-based, human. As for the experimental part: (§1) NCI-H358 was a human non-small cell lung cancer cell with KRAS G12C mutation; A549 was a human non-small cell lung cancer cell with KRAS G12V mutation: and A375 was a wild-type malignant melanoma cell. The inhibitory effects of compounds on different mutations were evaluated by testing the proliferation inhibitory activity of these compounds on the three cell lines.
(§2) 40 μL of cell suspension to be tested was added to each well (except for peripheral wells) of three 384-well plates (plate 1: NCI-H358 cell suspension: plate 2: A549 cell suspension: plate 3: A375 cell suspension). The plates were placed in a carbon dioxide incubator overnight. […] The plates were incubated in a carbon dioxide incubator for 120 hours. To the 384-well plates were added 25 μL of CellTiter Glo reagents, and the mixture was shaken in the dark for 10 minutes and incubated for 10 minutes. The plates were read on the EnVision plate reader. XLFit was used to draw inhibition rate curves of efficacy and IC50 values were calculated. […] “---” represents not determined.
Experiments for Testing Proliferation Inhibition of Compounds on NCI-H358 Cell Lines by CTG Method

A further experiment has as its system A549 cells. In words: Proliferation inhibition on A549 cell line by CTG method. The experiment is classed as cell-based, human. The following applies: Homo sapiens, A549, 120 h, Table 1, CellTiter Glo, class symbol. As for the experimental part: as §1, §2
Another experiment concerns A375 cells. In words: Proliferation inhibition on A375 cell line by CTG method. The experiment is classed as cell-based. The following applies: Homo sapiens, A-375; Table 1; CellTiter Glo, 120 hours; class symbol. The procedure:
as §1, §2

A further experiment concerns the target T1, CYP2C19 (Homo sapiens, UniProt P33261).
T1 construct: human liver microsomes and CYP enzyme-specific substrates were used; from tissue; host or cells: human liver microsomes
As to the kind of experiment: Inhibition of metabolic enzymes in vitro, human liver microsomes, CYP2C19. The experiment is classed as in vitro ADME. The following applies: substrate S-Mephenytoin. As for the experimental part:
(§3) Test purpose: In this test, human liver microsomes and CYP enzyme-specific substrates were used to test the effects of different concentrations of compounds to be tested on metabolic rates of enzyme-specific substrates, so as to determine inhibitory effects of these compounds on CYP enzymes in human liver microsomes.
(§4) 1. preparing […] potassium phosphate buffer (pH 7.4);
(§5) 2. preparing stock solutions of compounds to be tested (10 mM), NADPH solutions (8 mM, which was 4 times the final concentration), positive compound stock solutions, substrate stock solutions and human liver microsome solutions (see the table below);
(§6) 3. preparing solutions of compounds to be tested: dissolving 8 μL of 10 mM stock solution of compounds to be tested in 12 μL of acetonitrile, and then using a mixed solution of 40% DMSO and 60% acetonitrile to perform a 1:3 gradient dilution as follows (wherein the concentration was 400 times the final concentration): 4 mM, 1.333 mM, 0.444 mM, 0.148 mM, 0.0494 mM, 0.0165 mM, 0.00549 mM and 0 mM.
(§7) 4. preparing positive control inhibitor solutions: dissolving 8 μL of positive control inhibitor stock solutions in 12 μL of acetonitrile, and then using a mixed solution of 40% DMSO and 60% acetonitrile to perform a 1:3 gradient dilution as follows (wherein the concentration was 400 times the final concentration, which was described in the table below); […]

The next experiment has as its target CYP3A4 (Homo sapiens, UniProt P08684). As to the kind of experiment: Inhibition of metabolic enzymes in vitro, human liver microsomes, CYP3A4. The procedure: as §3, §4, §5
4. preparing positive control inhibitor solutions: dissolving 8 μL of positive control inhibitor stock solutions in 12 μL of acetonitrile, and then using a mixed solution of 40% DMSO and 60% acetonitrile to perform a 1:3 gradient dilution as follows (wherein the concentration was 400 times the final concentration, which was described in the table below);
6. preparing mixed solutions of positive control compounds and human liver microsomes: adding 200 μL of 0.2 mg/mL human liver microsomes to a 96-well plate, and adding 1 μL of diluted solutions of positive control compounds;
7. dispensing 30 μL of mixed solutions of the compounds and human liver microsomes to a 96-well plate, and then adding […] substrate solutions: adding […] preheated NADPH solutions to a preheated reaction plate and mixing evenly to start the reaction;
8. incubating the reaction plate at 37° C.; 3A4 was reacted for 5 minutes; 1A2, 2C9 and 2D6 were reacted for 10 minutes; 2C19 was reacted for 45 minutes;
9, after completion of the addition, adding 120 μL of acetonitrile containing internal standard to terminate the reaction: after terminating the reaction, shaking the sample on a shaker at 600 rpm/min for 10 minutes and centrifuging same at 3220×g for 15 minutes; after centrifugation, taking out 50 μL of supernatant and mixing same with 50 μL of water for analysis by LC-MS/MS.
According to the following equation, the data was plotted and fitted using a dose-response model in GraphPad Prism software to calculate IC50.
Y=Bottom+(Top−Bottom)/(1+10^((Log IC50−X)×HillSlope))
X represents the logarithm concentration of the inhibitor, and Y represents the relative activity of the enzyme at a certain inhibitor concentration (relative to the condition without inhibitor).

The target of the next experiment is T2, CYP1A2 (Homo sapiens, UniProt P05177).
T2 construct: human liver microsomes and CYP enzyme-specific substrates were used; from tissue; host or cells: human liver microsomes
T2 sequence (P05177 1-516): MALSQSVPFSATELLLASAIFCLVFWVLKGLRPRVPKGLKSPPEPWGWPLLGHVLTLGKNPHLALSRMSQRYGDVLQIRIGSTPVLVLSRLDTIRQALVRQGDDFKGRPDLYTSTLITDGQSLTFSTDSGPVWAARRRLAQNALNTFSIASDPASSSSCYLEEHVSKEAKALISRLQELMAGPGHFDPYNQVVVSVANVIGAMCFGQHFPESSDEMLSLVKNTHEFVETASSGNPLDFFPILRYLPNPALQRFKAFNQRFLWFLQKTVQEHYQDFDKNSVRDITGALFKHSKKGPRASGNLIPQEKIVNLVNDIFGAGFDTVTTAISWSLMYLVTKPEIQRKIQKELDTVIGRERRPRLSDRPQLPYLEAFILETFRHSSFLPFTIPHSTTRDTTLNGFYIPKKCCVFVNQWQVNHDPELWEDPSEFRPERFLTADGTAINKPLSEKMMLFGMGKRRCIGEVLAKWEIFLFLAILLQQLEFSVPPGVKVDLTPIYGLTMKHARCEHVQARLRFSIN
As to the kind of experiment: Inhibition of metabolic enzymes in vitro, human liver microsomes, CYP1A2. Format: in vitro ADME. The following applies: substrate Phenacetin. As for the experimental part: as §3, §4, §5, §6, §7

The next experiment has as its target T3, CYP2C9 (Homo sapiens, UniProt P11712).
T3 construct: human liver microsomes and CYP enzyme-specific substrates were used; from tissue; host or cells: human liver microsomes
In words: Inhibition of metabolic enzymes in vitro, human liver microsomes, CYP2C9. The experiment is classed as in vitro ADME. The following applies: substrate Diclofenac. The procedure:
as §3, §4, §5, §6, §7

Another experiment addresses CYP2D6 (Homo sapiens, UniProt P10635). As to the kind of experiment: Inhibition of metabolic enzymes in vitro, human liver microsomes, CYP2D6. As for the experimental part:
as §3, §4, §5, §6, §7

Where [1] appears, read: Table 1, number, read-out: IC50 (μM): (H358).
The mark [2] stands for this setting: Table 2, number, read-out: IC50 (nM) H358.
Setting [3] is: IC50 (μM) CYP3A4 (Midazolam), substrate Midazolam.
Where [4] appears, read: IC50 (μM) CYP3A4 (Testosterone), substrate Testosterone.

Read-outs that look alike come from different tables or passages of the source.

Sequence of CYP3A4 (P08684 whole entry): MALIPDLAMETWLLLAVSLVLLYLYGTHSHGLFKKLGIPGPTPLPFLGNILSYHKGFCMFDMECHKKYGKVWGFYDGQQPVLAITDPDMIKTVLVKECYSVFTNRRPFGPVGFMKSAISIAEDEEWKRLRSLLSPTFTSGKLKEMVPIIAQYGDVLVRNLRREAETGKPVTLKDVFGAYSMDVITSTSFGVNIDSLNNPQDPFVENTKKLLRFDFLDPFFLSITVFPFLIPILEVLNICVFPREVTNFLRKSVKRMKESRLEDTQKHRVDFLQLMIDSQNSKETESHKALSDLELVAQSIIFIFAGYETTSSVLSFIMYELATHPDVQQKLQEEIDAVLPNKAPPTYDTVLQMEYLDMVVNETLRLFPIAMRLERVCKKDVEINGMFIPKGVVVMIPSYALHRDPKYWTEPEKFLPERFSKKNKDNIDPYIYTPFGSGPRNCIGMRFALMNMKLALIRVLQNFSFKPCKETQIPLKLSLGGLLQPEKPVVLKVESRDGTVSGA
Sequence of CYP2D6 (P10635 whole entry): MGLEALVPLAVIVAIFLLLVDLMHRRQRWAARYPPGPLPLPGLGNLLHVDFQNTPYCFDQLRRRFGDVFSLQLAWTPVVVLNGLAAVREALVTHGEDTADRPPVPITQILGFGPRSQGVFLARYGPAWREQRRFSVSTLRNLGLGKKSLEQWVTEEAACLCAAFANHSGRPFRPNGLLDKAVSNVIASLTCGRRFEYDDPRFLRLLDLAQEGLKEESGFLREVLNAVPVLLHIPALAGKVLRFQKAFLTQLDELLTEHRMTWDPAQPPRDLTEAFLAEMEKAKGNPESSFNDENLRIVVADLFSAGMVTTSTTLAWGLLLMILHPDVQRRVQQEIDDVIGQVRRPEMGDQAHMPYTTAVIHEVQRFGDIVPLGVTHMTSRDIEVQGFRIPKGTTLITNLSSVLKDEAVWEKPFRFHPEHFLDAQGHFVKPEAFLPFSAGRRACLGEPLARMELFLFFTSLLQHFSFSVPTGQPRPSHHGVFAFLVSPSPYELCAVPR
T1 sequence (P33261 whole entry): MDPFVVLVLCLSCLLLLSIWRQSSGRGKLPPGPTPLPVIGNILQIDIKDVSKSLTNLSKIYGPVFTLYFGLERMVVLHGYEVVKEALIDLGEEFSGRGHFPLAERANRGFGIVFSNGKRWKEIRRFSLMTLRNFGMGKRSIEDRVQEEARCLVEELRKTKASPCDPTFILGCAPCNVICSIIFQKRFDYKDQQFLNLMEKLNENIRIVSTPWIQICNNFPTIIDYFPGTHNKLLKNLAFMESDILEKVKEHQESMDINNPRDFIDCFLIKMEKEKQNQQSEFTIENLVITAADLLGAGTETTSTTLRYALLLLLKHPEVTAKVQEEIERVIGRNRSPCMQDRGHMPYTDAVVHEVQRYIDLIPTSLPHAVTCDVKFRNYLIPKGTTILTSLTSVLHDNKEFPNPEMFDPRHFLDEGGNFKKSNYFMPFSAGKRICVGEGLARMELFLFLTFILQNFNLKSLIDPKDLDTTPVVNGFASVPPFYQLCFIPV
T3 sequence (P11712 whole entry): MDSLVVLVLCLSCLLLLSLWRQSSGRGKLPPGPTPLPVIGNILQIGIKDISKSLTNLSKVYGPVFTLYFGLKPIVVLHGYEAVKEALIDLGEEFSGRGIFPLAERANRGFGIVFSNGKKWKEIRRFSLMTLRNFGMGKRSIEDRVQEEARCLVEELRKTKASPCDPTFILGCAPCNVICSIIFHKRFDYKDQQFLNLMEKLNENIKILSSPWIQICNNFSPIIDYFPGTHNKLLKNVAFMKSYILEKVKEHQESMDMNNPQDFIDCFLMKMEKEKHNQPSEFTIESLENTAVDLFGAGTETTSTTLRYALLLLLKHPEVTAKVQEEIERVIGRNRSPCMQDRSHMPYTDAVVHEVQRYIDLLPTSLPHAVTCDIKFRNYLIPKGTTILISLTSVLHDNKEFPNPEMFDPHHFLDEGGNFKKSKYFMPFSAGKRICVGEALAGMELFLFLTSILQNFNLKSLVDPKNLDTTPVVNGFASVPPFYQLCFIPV

`C=CC(=O)N1CCN(c2nc(OC[C@@H]3CCCN3C)nc3c2COC(c2cncc4ccccc24)C3)C[C@@H]1CC#N` (stereo partly shown) [Compound 40] gave an IC50 in the experiment with MIA PaCa-2 cells (class symbol) of less than 1000 nM.
For the compound `C=CC(=O)N1CCN(c2nc(OC[C@@H]3CCCN3C)nc3c2CCN(c2ccccc2C(F)(F)F)C3)C[C@@H]1CC#N` [Comparative compound 1′, reference compound], the IC50 in the experiment on MIA PaCa-2 cells (number) worked out at 3.9 nM; with NCI-H358 cells (setting [1]), 0.0073 µM; in the experiment with NCI-H358 cells (setting [2]), 0.0073 µM.
Regarding `C=CC(=O)N1CCN(c2nc(OC[C@@H]3CCCN3C)nc3c2COC(c2ccccc2C(F)(F)F)C3)C[C@@H]1CC#N` (stereo partly shown) [Compound 2-2], the concentration for half-maximal inhibition (IC50) with MIA PaCa-2 cells (number) is 1.9 nM; in the experiment on A549 cells, more than 1 µM; in the experiment on NCI-H358 cells (Table 1, class symbol, read-out: IC50 (μM): (H358)), less than 1 µM; in the experiment on NCI-H358 cells (setting [1]) it was 0.0025 µM; in the experiment on NCI-H358 cells (setting [2]), 0.0025 µM; with A375 cells, more than 1 µM. The “proliferation inhibitory activity, comparison in words” value in the experiment on MIA PaCa-2 cells (text on Table 2 (H358 and MIA PaCa-2 cells)) is “significantly better than that of the corresponding comparative compounds 1′ and 3′”. Also, the “proliferation inhibitory activity on NCI-H358 cells, in words” value with NCI-H358 cells (Table 1) is reported as “significantly better than that of the corresponding comparative compound 1′”.
On to `C=CC(=O)N1CCN(c2nc(=O)n(-c3c(C)ccnc3C(C)C)c3nc(-c4c(O)cccc4F)c(F)cc23)[C@@H](C)C1` (atropisomer, axis not shown) [AMG-510], for which the IC50 against CYP2C19 was more than 10 µM; against CYP3A4 (setting [3]), 4.46 µM; against CYP3A4 (setting [4]), more than 10 µM; against CYP1A2, more than 10 µM; against CYP2C9, more than 10 µM; against CYP2D6, more than 10 µM.
Regarding `C=CC(=O)N1CCN(c2nc(OC[C@@H]3CCCN3C)nc3c2CC[C@H](c2ccccc2C(F)(F)F)C3)C[C@@H]1CC#N` [Comparative compound 3′, reference compound], half-maximal inhibition in the experiment on MIA PaCa-2 cells (number) (IC50) required 8.3 nM.
For `C=C(F)C(=O)N1CCN(c2nc(OC[C@@H]3CCCN3C)nc3c2CCN(c2cccc4cccc(Cl)c24)C3)C[C@@H]1CC#N` [MRTX849], the IC50 against CYP2C19 was more than 10 µM; on CYP3A4 (setting [3]), 5.92 µM; on CYP3A4 (setting [4]), 7.85 µM; against CYP1A2 it was more than 10 µM; on CYP2C9 it was 2.29 µM; on CYP2D6, more than 10 µM.

Values taken from patent US20220315598A1, “Oxygen-containing Heterocyclic Compound, Preparation Method Therefor and Use Thereof” (SHANGHAI YINGLI PHARMACEUTICAL CO., LTD, priority 2019, published 2022).
